Laboratory results from US11098003B2, “Control and repellency of bed bugs” (BEDOUKIAN RESEARCH, INC., priority 2012, dated 2021).

Test system: bed bugs
Assay: Petri dish choice test, treated vs. untreated paper discs: repellency (avoidance) of bed bugs
Format: in vivo, Cimex species
Conditions: 1 ml acetone solution on paper disc, distribution at 2 hours post-treatment, 5 replicates of 10 bed bugs
Description: Two semicircle discs of paper, one treated (1 ml of acetone solution of each compound was applied to each disc) and one untreated (1 ml of acetone only), were placed in the lid of a Petri dish. […] Five replicates of 10 bed bugs were released into the centers of the lids and were thus presented with a choice of treated vs. untreated substrate (or untreated vs. untreated in the control arenas). The distribution of the bed bugs was recorded at 2 hours post-treatment. Paired t-tests were conducted for each treatment to ascertain whether or not there was a statistically significant difference in the numbers of bed bugs on the treated vs. untreated discs.

Compound: CCCCCCCCC1CCC(=O)O1 (stereo not shown) [gamma-Dodecalactone]
- Repellency/Avoidance (0.2% compound): 82%

Compound: CCCCCC1C(CC(=O)OC)CCC1(OC)OC (stereo not shown) [Methyl dihydrojasmonate dimethyl acetal]
- Repellency/Avoidance (0.2% compound): 90%

Compound: CCCCCC1C(O)CCC1CC(=O)OCC=C(C)C (stereo not shown) [Prenyl dihydrojasmolate]
- Repellency/Avoidance (0.2% compound): 48%

Compound: CCCCCCCCCC1(C)CCC(=O)O1 (stereo not shown) [gamma Methyl tridecalactone]
- Repellency/Avoidance (0.2% compound): 72%

Compound: CCCCCCCCCCCCCC1CCC(=O)O1 (stereo not shown) [gamma-Heptadecalactone]
- Repellency/Avoidance (2% compound): 68%

Compound: Methyl dihydrojasmonate amide
- Repellency/Avoidance (concentration not given): 28%

Compound: CCCCCC1C(=O)CCC1CC(=O)O (stereo not shown) [Dihydrojasmonic Acid]
- Repellency/Avoidance (0.2% compound): 78%

Compound: CCN(CC)C(=O)c1cccc(C)c1 [DEET, N,N-Diethyl-m-toluamide, reference compound]
- Repellency/Avoidance (0.09% compound): 66%
- Repellency/Avoidance (0.2% compound): 74%

Compound: CCCCCCCCCC1CCC(=O)O1 (stereo not shown) [gamma-Tridecalactone]
- Repellency/Avoidance (0.5% compound): 86%
- Repellency/Avoidance (1% compound): 96%

Compound: Dihydrojasmolactone
- Repellency/Avoidance (0.2% compound): 84%

Compound: Methyl apritol
- Repellency/Avoidance (0.15% compound): 74%
- Repellency/Avoidance (0.2% compound): 88%

Compound: CCCCCCCCCCCC1CCC(=O)O1 (stereo not shown) [gamma-Pentadecalactone]
- Repellency/Avoidance (1% compound): 92%

Compound: CCCCCC1C(O)CCC1CC(=O)OC (stereo not shown) [Methyl dihydrojasmolate]
- Repellency/Avoidance (0.15% compound): 58%
- Repellency/Avoidance (0.2% compound): 82%

Compound: CC1CCC(C(C)(C)O)C(O)C1 (stereo not shown) [Para Menthane-3,8-diol (PMD), Para Menthane-3,8-diol, reference compound]
- Repellency/Avoidance (0.15% compound): 42%
- Repellency/Avoidance (0.2% compound): 70%
